Reference: EP0908457B1, “3-(1,2-benzisothiazol- and isoxazol-5-Y1)-2,4(1H,3H)-pyrimidinedione or thione and 3-(1,2-benzisothiazol- and isoxazol-5-y1)-4(3H)-pyrimidinone or thione herbicidal agents” (BASF AKTIENGESELLSCHAFT, priority 1997, dated 1999)

Key:
[1] = system: Oryza sativa, (L.) Tebonnet; assay: Rice tolerance to post-transplant applications under flooded paddy conditions (Example 187), ORYSAT (Rice, Tebonnet); settings: rated three to four weeks after treatment; on herbicidal effect rating ORYSAT: meaning of each grade not given here
Cyperus iria = assay: Preemergence weed control under flooded paddy conditions, CYPIR (Rice Flatsedge); type: in vivo; settings: flooded paddy, rated three to four weeks after treatment; on herbicidal effect rating, CYPIR: meaning of each grade not given here
[2] = system: Echinochloa oryzoides (Ard.) Fritsch.; assay: Preemergence weed control under flooded paddy conditions, ECHORC (Watergrass (Calif.)); type: in vivo; settings: flooded paddy, rated three to four weeks after treatment; on herbicidal effect rating, ECHORC: meaning of each grade not given here
Sagittaria pygmaea, L. = assay: Preemergence weed control under flooded paddy conditions, SAGPY (Arrowhead (Pygmaea)); type: in vivo; settings: flooded paddy, rated three to four weeks after treatment; on herbicidal effect rating, SAGPY: meaning of each grade not given here
[3] = system: Monochoria vaginalis, Presl.; assay: Preemergence weed control under flooded paddy conditions, MOOVA (Monochoria); type: in vivo; settings: flooded paddy, rated three to four weeks after treatment; on herbicidal effect rating, MOOVA: meaning of each grade not given here
[4] = Rate 0.0320 kg/ha, preemergence weeds
[5] = Rate 0.0620 kg/ha, preemergence weeds
[6] = Rate 0.1250 kg/ha, preemergence weeds
[7] = Rate 0.2500 kg/ha, preemergence weeds
[8] = Rate 0.0320 kg/ha, preemergence
[9] = Rate 0.0620 kg/ha, preemergence
[10] = Rate 0.1250 kg/ha, preemergence
[11] = Rate 0.2500 kg/ha, preemergence
[12] = Rate 0.5000 kg/ha, preemergence

Cn1c(C(F)(F)F)cc(=O)n(-c2ccc3snc(C(Cl)Br)c3c2)c1=O (stereo not drawn) [Example 300, 2,4(1H,3H)-Pyrimidinedione, 3-[3-(bromochloromethyl)-1,2-benzisothiazol-5-yl]-1-methyl-6-(trifluoromethyl)-]
9.0: herbicidal effect rating, CYPIR (Cyperus iria; [6]) | herbicidal effect rating, CYPIR (Cyperus iria; [7]) | herbicidal effect rating, ECHORC [2, 7] | herbicidal effect rating, MOOVA [3, 4] | herbicidal effect rating, MOOVA [3, 5] | herbicidal effect rating, MOOVA [3, 6] | herbicidal effect rating, MOOVA [3, 7]
4.0: herbicidal effect rating ORYSAT ([1]; Rate 0.0620 kg/ha) | herbicidal effect rating ORYSAT ([1]; Rate 0.1250 kg/ha)
5.0: herbicidal effect rating ORYSAT ([1]; Rate 0.2500 kg/ha) | herbicidal effect rating, SAGPY (Sagittaria pygmaea, L.; [5])
7.0: herbicidal effect rating, ECHORC [2, 6] | herbicidal effect rating, SAGPY (Sagittaria pygmaea, L.; [7])
2.0: herbicidal effect rating ORYSAT ([1]; Rate 0.0320 kg/ha) | herbicidal effect rating, SAGPY (Sagittaria pygmaea, L.; [4])
6.0: herbicidal effect rating, CYPIR (Cyperus iria; [5]) | herbicidal effect rating, ECHORC [2, 5] | herbicidal effect rating, SAGPY (Sagittaria pygmaea, L.; [6])
3.0: herbicidal effect rating, CYPIR (Cyperus iria; [4]) | herbicidal effect rating, ECHORC [2, 4]

Cn1c(C(F)(F)F)cc(=O)n(-c2ccc3snc(CSCC(=O)NS(C)(=O)=O)c3c2)c1=O [Example 297, Acetamide, 2-{{{5-[3,6-dihydro-3-methyl-2,6-dioxo-4-(trifluoromethyl)-1(2H)-pyrimidinyl]-1,2-benzisothiazol-3-yl}methyl}thio}-N-(methylsulfonyl)-]
9.0: herbicidal effect rating, CYPIR (Cyperus iria; [7]) | herbicidal effect rating, SAGPY (Sagittaria pygmaea, L.; [7]) | herbicidal effect rating, MOOVA [3, 4] | herbicidal effect rating, MOOVA [3, 5] | herbicidal effect rating, MOOVA [3, 6] | herbicidal effect rating, MOOVA [3, 7]
2.0: herbicidal effect rating ORYSAT ([1]; Rate 0.2500 kg/ha)
4.0: herbicidal effect rating, CYPIR (Cyperus iria; [4]) | herbicidal effect rating, ECHORC [2, 7]
3.0: herbicidal effect rating, ECHORC [2, 6] | herbicidal effect rating, SAGPY (Sagittaria pygmaea, L.; [6])
5.0: herbicidal effect rating, CYPIR (Cyperus iria; [5])
7.0: herbicidal effect rating, CYPIR (Cyperus iria; [6])
0.0: herbicidal effect rating ORYSAT ([1]; Rate 0.0320 kg/ha) | herbicidal effect rating ORYSAT ([1]; Rate 0.0620 kg/ha) | herbicidal effect rating ORYSAT ([1]; Rate 0.1250 kg/ha) | herbicidal effect rating, ECHORC [2, 4] | herbicidal effect rating, ECHORC [2, 5] | herbicidal effect rating, SAGPY (Sagittaria pygmaea, L.; [4]) | herbicidal effect rating, SAGPY (Sagittaria pygmaea, L.; [5])

Cn1c(C(F)(F)F)cc(=O)n(-c2ccc3snc(COCC(=O)O)c3c2)c1=O [Example 293, Acetic acid, {{5-[3,6-dihydro-3-methyl-2,6-dioxo-4-(trifluoromethyl)-1(2H)-pyrimidinyl]-1,2-benzisothiazol-3-yl}methoxy}-]
9.0: CYPIR herbicidal effect rating (Cyperus iria; [8]) | CYPIR herbicidal effect rating (Cyperus iria; [9]) | CYPIR herbicidal effect rating (Cyperus iria; [10]) | CYPIR herbicidal effect rating (Cyperus iria; [11]) | MOOVA herbicidal effect rating [3, 8] | MOOVA herbicidal effect rating [3, 9] | MOOVA herbicidal effect rating [3, 10] | MOOVA herbicidal effect rating [3, 11]
0.0: ORYSAT herbicidal effect rating ([1]; Rate 0.0320 kg/ha) | ORYSAT herbicidal effect rating ([1]; Rate 0.0620 kg/ha) | ORYSAT herbicidal effect rating ([1]; Rate 0.1250 kg/ha) | ORYSAT herbicidal effect rating ([1]; Rate 0.2500 kg/ha) | ECHORC herbicidal effect rating [2, 8] | ECHORC herbicidal effect rating [2, 9] | ECHORC herbicidal effect rating [2, 10] | ECHORC herbicidal effect rating [2, 11] | SAGPY herbicidal effect rating (Sagittaria pygmaea, L.; [8]) | SAGPY herbicidal effect rating (Sagittaria pygmaea, L.; [9]) | SAGPY herbicidal effect rating (Sagittaria pygmaea, L.; [10])
6.0: SAGPY herbicidal effect rating (Sagittaria pygmaea, L.; [11])

CNC.Cn1c(C(F)(F)F)cc(=O)n(-c2ccc3snc(CSCC(=O)O)c3c2)c1=O [Example 299, Acetic acid, {{{5-[3,6-dihydro-3-methyl-2,6-dioxo-4-(trifluoromethyl)-1(2H)-pyrimidinyl)-1,2-benzisothiazol-3-yl}methyl}thio}-, dimethylamine salt]
0.0: herbicidal effect rating ORYSAT ([1]; Rate 0.0320 kg/ha) | herbicidal effect rating ORYSAT ([1]; Rate 0.0620 kg/ha) | herbicidal effect rating, ECHORC [2, 4] | herbicidal effect rating, ECHORC [2, 5] | herbicidal effect rating, SAGPY (Sagittaria pygmaea, L.; [4]) | herbicidal effect rating, SAGPY (Sagittaria pygmaea, L.; [5])
2.0: herbicidal effect rating, ECHORC [2, 6]
9.0: herbicidal effect rating, CYPIR (Cyperus iria; [6]) | herbicidal effect rating, CYPIR (Cyperus iria; [7]) | herbicidal effect rating, MOOVA [3, 5] | herbicidal effect rating, MOOVA [3, 6] | herbicidal effect rating, MOOVA [3, 7]
7.0: herbicidal effect rating, CYPIR (Cyperus iria; [5]) | herbicidal effect rating, SAGPY (Sagittaria pygmaea, L.; [7]) | herbicidal effect rating, MOOVA [3, 4]
3.0: herbicidal effect rating ORYSAT ([1]; Rate 0.1250 kg/ha) | herbicidal effect rating, CYPIR (Cyperus iria; [4]) | herbicidal effect rating, SAGPY (Sagittaria pygmaea, L.; [6])
5.0: herbicidal effect rating ORYSAT ([1]; Rate 0.2500 kg/ha) | herbicidal effect rating, ECHORC [2, 7]

COC(=O)COCc1nsc2ccc(-n3c(=O)cc(C(F)(F)F)n(C)c3=O)cc12 [Example 292, Acetic acid, {{5-[3,6-dihydro-3-methyl-2,6-dioxo-4-(trifluoromethyl)-1(2H)-pyrimidinyl]-1,2-benzisothiazol-3-yl}methoxy}-, methyl ester]
5.0: SAGPY herbicidal effect rating (Sagittaria pygmaea, L.; [11])
0.0: ORYSAT herbicidal effect rating ([1]; Rate 0.0320 kg/ha) | ORYSAT herbicidal effect rating ([1]; Rate 0.0620 kg/ha) | ORYSAT herbicidal effect rating ([1]; Rate 0.1250 kg/ha) | ORYSAT herbicidal effect rating ([1]; Rate 0.2500 kg/ha) | ECHORC herbicidal effect rating [2, 8] | ECHORC herbicidal effect rating [2, 9] | ECHORC herbicidal effect rating [2, 10] | ECHORC herbicidal effect rating [2, 11] | SAGPY herbicidal effect rating (Sagittaria pygmaea, L.; [8]) | SAGPY herbicidal effect rating (Sagittaria pygmaea, L.; [9]) | SAGPY herbicidal effect rating (Sagittaria pygmaea, L.; [10])
9.0: CYPIR herbicidal effect rating (Cyperus iria; [8]) | CYPIR herbicidal effect rating (Cyperus iria; [9]) | CYPIR herbicidal effect rating (Cyperus iria; [10]) | CYPIR herbicidal effect rating (Cyperus iria; [11]) | MOOVA herbicidal effect rating [3, 8] | MOOVA herbicidal effect rating [3, 9] | MOOVA herbicidal effect rating [3, 10] | MOOVA herbicidal effect rating [3, 11]

Cn1c(C(F)(F)F)cc(=O)n(-c2cc3c(C(=O)NS(=O)(=O)Cc4ccccc4)nsc3cc2F)c1=O [Example 482, 1,2-Benzisothiazole-3-carboxamide, N-(benzylsulfonyl)-5-[3,6-dihydro-3-methyl-2,6-dioxo-4-(trifluoromethyl)-1(2H)-pyrimidinyl]-6-fluoro-]
7.0: ORYSAT herbicidal rating (rice tolerance) ([1]; 0.2500 kg/ha) | ECHORC herbicidal rating ([2]; 0.0620 kg/ha, preemergence) | SAGPY herbicidal rating (Sagittaria pygmaea, L.; 0.2500 kg/ha, preemergence) | MOOVA herbicidal rating ([3]; 0.2500 kg/ha, preemergence)
0.0: ORYSAT herbicidal rating (rice tolerance) ([1]; 0.0320 kg/ha) | CYPIR herbicidal rating (Cyperus iria; 0.0320 kg/ha, preemergence) | CYPIR herbicidal rating (Cyperus iria; 0.0620 kg/ha, preemergence) | CYPIR herbicidal rating (Cyperus iria; 0.1250 kg/ha, preemergence)
2.0: ORYSAT herbicidal rating (rice tolerance) ([1]; 0.0620 kg/ha)
6.0: ORYSAT herbicidal rating (rice tolerance) ([1]; 0.1250 kg/ha) | CYPIR herbicidal rating (Cyperus iria; 0.2500 kg/ha, preemergence) | MOOVA herbicidal rating ([3]; 0.1250 kg/ha, preemergence)
4.0: ECHORC herbicidal rating ([2]; 0.0320 kg/ha, preemergence) | SAGPY herbicidal rating (Sagittaria pygmaea, L.; 0.0620 kg/ha, preemergence) | MOOVA herbicidal rating ([3]; 0.0320 kg/ha, preemergence)
3.0: SAGPY herbicidal rating (Sagittaria pygmaea, L.; 0.0320 kg/ha, preemergence)
9.0: ECHORC herbicidal rating ([2]; 0.1250 kg/ha, preemergence) | ECHORC herbicidal rating ([2]; 0.2500 kg/ha, preemergence)
5.0: SAGPY herbicidal rating (Sagittaria pygmaea, L.; 0.1250 kg/ha, preemergence) | MOOVA herbicidal rating ([3]; 0.0620 kg/ha, preemergence)

CNC.Cn1c(C(F)(F)F)cc(=O)n(-c2ccc3snc(CSCC(=O)NS(C)(=O)=O)c3c2)c1=O [Example 298, Acetamide, 2-{{{5-[3,6-dihydro-3-methyl-2,6-dioxo-4-(trifluoromethyl)-1(2H)-pyrimidinyl]-1,2-benzisothiazol-3-yl}methyl}thio}-N-(methylsulfonyl)-, dimethylamine salt]
0.0: herbicidal effect rating ORYSAT ([1]; Rate 0.0320 kg/ha) | herbicidal effect rating ORYSAT ([1]; Rate 0.0620 kg/ha) | herbicidal effect rating ORYSAT ([1]; Rate 0.1250 kg/ha) | herbicidal effect rating ORYSAT ([1]; Rate 0.2500 kg/ha) | herbicidal effect rating, ECHORC [2, 4] | herbicidal effect rating, ECHORC [2, 5] | herbicidal effect rating, ECHORC [2, 6] | herbicidal effect rating, SAGPY (Sagittaria pygmaea, L.; [4]) | herbicidal effect rating, SAGPY (Sagittaria pygmaea, L.; [5])
3.0: herbicidal effect rating, CYPIR (Cyperus iria; [4]) | herbicidal effect rating, ECHORC [2, 7] | herbicidal effect rating, SAGPY (Sagittaria pygmaea, L.; [6])
9.0: herbicidal effect rating, CYPIR (Cyperus iria; [5]) | herbicidal effect rating, CYPIR (Cyperus iria; [6]) | herbicidal effect rating, CYPIR (Cyperus iria; [7]) | herbicidal effect rating, SAGPY (Sagittaria pygmaea, L.; [7]) | herbicidal effect rating, MOOVA [3, 4] | herbicidal effect rating, MOOVA [3, 5] | herbicidal effect rating, MOOVA [3, 6] | herbicidal effect rating, MOOVA [3, 7]

COc1ccc(O)c(-c2nsc3ccc(-n4c(=O)cc(C(F)(F)F)n(C)c4=O)cc23)c1 [Example 361, 2,4(1H,3H)-Pyrimidinedione, 3-[3-(2-hydroxy-5-methoxyphenyl)-1,2-benzisothiazol-5-yl]-1-methyl-6-(trifluoromethyl)-]
4.0: herbicidal effect rating ORYSAT ([1]; Rate 0.1250 kg/ha) | herbicidal effect rating, ECHORC [2, 11] | herbicidal effect rating, ECHORC [2, 12] | herbicidal effect rating, SAGPY (Sagittaria pygmaea, L.; [8]) | herbicidal effect rating, SAGPY (Sagittaria pygmaea, L.; [9])
5.0: herbicidal effect rating ORYSAT ([1]; Rate 0.2500 kg/ha) | herbicidal effect rating, SAGPY (Sagittaria pygmaea, L.; [10]) | herbicidal effect rating, SAGPY (Sagittaria pygmaea, L.; [11]) | herbicidal effect rating, SAGPY (Sagittaria pygmaea, L.; [12])
9.0: herbicidal effect rating, MOOVA [3, 8] | herbicidal effect rating, MOOVA [3, 9] | herbicidal effect rating, MOOVA [3, 10] | herbicidal effect rating, MOOVA [3, 11] | herbicidal effect rating, MOOVA [3, 12]
3.0: herbicidal effect rating ORYSAT ([1]; Rate 0.5000 kg/ha)
0.0: herbicidal effect rating ORYSAT ([1]; Rate 0.0320 kg/ha) | herbicidal effect rating ORYSAT ([1]; Rate 0.0620 kg/ha) | herbicidal effect rating, CYPIR (Cyperus iria; [8]) | herbicidal effect rating, CYPIR (Cyperus iria; [9]) | herbicidal effect rating, CYPIR (Cyperus iria; [10]) | herbicidal effect rating, ECHORC [2, 8] | herbicidal effect rating, ECHORC [2, 9] | herbicidal effect rating, ECHORC [2, 10]
6.0: herbicidal effect rating, CYPIR (Cyperus iria; [11]) | herbicidal effect rating, CYPIR (Cyperus iria; [12])
